pIC50: −log10 of the molar value.
Legend:
MDA-468 = assay: cytotoxicity, MDA-468; format: cell-based; details: read-out: MDA-468 (nM), cytotoxicity
LNCap = assay: cytotoxicity, LNCap; format: cell-based; details: read-out: LNCap (nM), cytotoxicity
mTOR = mTOR (Homo sapiens, UniProt P42345); assay: mTor kinase inhibition; format: biochemical; details: read-out: mTOR (nM), mTor kinase inhibition
lymphocyte kinase = details: read-out: IC50 lymphocyte kinase; cited from earlier work
[1] = target: phosphatidylinositol 3-kinase; details: read-out: IC50 phosphatidylinositol 3-kinase; cited from earlier work

For CCC(=O)Nc1cc(=N)c2ncc3cc(C(=O)C=COC)[nH]c1c32 [Compound 4, neolymphostin B], the IC50 (MDA-468) was 85 nM, the IC50 (LNCap) was 48 nM and the IC50 (mTOR) was 1.5 nM.
Work on neolymphostin A [Compound 3] yielded an IC50 (MDA-468) of 58 nM, an IC50 (LNCap) of 22 nM and an IC50 (mTOR) of 0.8 nM.
Work on CC[C@H](C)C(=O)Nc1cc(=N)c2ncc3cc(C(=O)C=COC)[nH]c1c32 [Compound 5, neolymphostin C] yielded an IC50 (MDA-468) of 700 nM, an IC50 (LNCap) of 230 nM and an IC50 (mTOR) of 1.8 nM.
For CO/C=C/C(=O)c1cc2cnc3c(=N)cc(NC(C)=O)c([nH]1)c23 [Compound 1, lymphostin], the pIC50 (lymphocyte kinase) is given as 7.30, the IC50 (MDA-468) is given as 14 nM and the pIC50 [1] is given as 9.00. For the same molecule, the IC50 (LNCap) was 38 nM and the IC50 (mTOR) was 1.7 nM.
Molecule COC=CC(=O)c1cc2cnc3c(=N)cc(NC(=O)CC(C)C)c([nH]1)c23 [Compound 6, neolymphostin D] has an IC50 (MDA-468) of 700 nM, an IC50 (LNCap) of 230 nM and an IC50 (mTOR) of 1.8 nM.

Source: paper PMC3161154 (Journal of the American Chemical Society, 2011)
